Columns and labels:
[1] = test system: recombinant NL4-3 virus (Renilla luciferase in nef); experiment: HIV cell culture assay (antiviral activity, luciferase readout in MT-2 cells); assay type: cell-based; conditions: Renilla, NL43
Protocol: HIV cell culture assay—MT=2 cells, 293T cells and the proviral DNA clone of NL4-3 virus were obtained from the NIH AIDS Research and Reference Reagent Program. MT=2 cells were propagated in RPMI 1640 media supplemented with 10% heat inactivated fetal bovine serum (FBS), […] penicillin G and up to 100 units/mL streptomycin. The 293T cells were propagated in DMEM media supplemented with 10% heat inactivated FBS, […] penicillin G and […] streptomycin. A recombinant NL4-3 proviral clone, in which a section of the nef gene was replaced with the Renilla luciferase gene, was used to make the reference virus used in these studies. The recombinant virus was prepared through transfection of the recombinant NL4-3 proviral clone into 293T cells using Transit-293 Transfection Reagent from Mirus Bio LLC (Madison, Wis.). Supernatent was harvested after 2-3 days and the amount of virus present was titered in MT=2 cells using luciferase enzyme activity as a marker by measuring luciferase enzyme activity. Luciferase was quantitated using the EnduRen Live Cell Substrate from Promega (Madison, Wis.). Antiviral activities of compounds toward the recombinant virus were quantified by measuring luciferase activity in MT=2 cells infected for 4-5 days with the recombinant virus in the presence of serial dilutions of the compound.
The 50% effective concentration (EC50) was calculated by using the exponential form of the median effect equation where (Fa)=1/[1+(ED50/drug conc.)m] (Johnson V A, Byington R T. Infectivity Assay. In Techniques in HIV Research. ed. Aldovini A, Walker B D. 71-76. New York: Stockton Press. 1990). The 50% inhibitory concentration (EC50) was calculated by using the exponential form of the median effect equation where percent inhibition=1/[1+(EC50/drug concentration)m], where m is a parameter that reflects the slope of the concentration-response curve.

[2] = Compound cytotoxicity, XTT-based colorimetric assay; assay type: cell-based; conditions: human; uninfected MT2 cells, day 4, XTT
Protocol: Compound cytotoxicity and the corresponding CC50 values were determined using the same protocol as described in the antiviral assay except that uninfected cells were used. Cytotoxicity was assessed on day 4 in uninfected MT2 cells by using an XTT (2,3-bis[2-Methoxy-4-nitro-5-sulfophenyl]-2H-tetrazolium-5-carboxyanilide inner salt)-based colorimetric assay (Sigma-Aldrich, St Louis, Mo.).

Structure (SMILES)	EC50 [1]	CC50 at 4 days [2]
Cn1nc(NS(C)(=O)=O)c2c(Cl)ccc(-n3c([C@H](Cc4cc(F)cc(F)c4)NC(=O)Cn4nc(C(F)F)c5c4C(F)(F)[C@@H]4C[C@H]54)nc4cc(-c5ncc(Cl)cc5F)ccc4c3=O)c21 (atropisomer, axis not shown; (P)) [Example 8, N—((S)-1-((3P)-3-(4-chloro-1-methyl-3-(methylsulfonamido)-1H-indazol-7-yl)-7-(5-chloro-3-fluoropyridin-2-yl)-4-oxo-3,4-dihydroquinazolin-2-yl)-2-(3,5-difluorophenyl)ethyl)-2-((3bS,4aR)-3-(difluoromethyl)-5,5-difluoro-3b,4,4a,5-tetrahydro-1H-cyclopropa[3,4]cyclopenta[1,2-c]pyrazol-1-yl)acetamide]	0.3 nM	> 500 nM
Cn1nc(NS(C)(=O)=O)c2c(Cl)ccc(-n3c([C@H](Cc4cc(F)cc(F)c4)NC(=O)Cn4nc(C(F)F)c5c4C(F)(F)[C@@H]4C[C@H]54)nc4cc(-c5ccnc(S(C)(=O)=O)n5)ccc4c3=O)c21 (atropisomer, axis not shown; (P)) [Example 9, N—((S)-1-((3P)-3-(4-chloro-1-methyl-3-(methylsulfonamido)-1H-indazol-7-yl)-7-(2-(methylsulfonyl)pyrimidin-4-yl)-4-oxo-3,4-dihydroquinazolin-2-yl)-2-(3,5-difluorophenyl)ethyl)-2-((3bS,4aR)-3-(difluoromethyl)-5,5-difluoro-3b,4,4a,5-tetrahydro-1H-cyclopropa[3,4]cyclopenta[1,2-c]pyrazol-1-yl)acetamide]	0.15 nM	> 500 nM
Cn1nc(NS(C)(=O)=O)c2c(Cl)ccc(-n3c([C@H](Cc4cc(F)cc(F)c4)NC(=O)Cn4nc(C(F)F)c5c4C(F)(F)[C@@H]4C[C@H]54)nc4cc(-c5ccnc(C#N)n5)ccc4c3=O)c21 (atropisomer, axis not shown; (P)) [Example 11, N—((S)-1-((3P)-3-(4-chloro-1-methyl-3-(methylsulfonamido)-1H-indazol-7-yl)-7-(2-cyanopyrimidin-4-yl)-4-oxo-3,4-dihydroquinazolin-2-yl)-2-(3,5-difluorophenyl)ethyl)-2-((3bS,4aR)-3-(difluoromethyl)-5,5-difluoro-3b,4,4a,5-tetrahydro-1H-cyclopropa[3,4]cyclopenta[1,2-c]pyrazol-1-yl)acetamide]	0.089 nM	> 500 nM
Cc1cc(C#N)nc(-c2ccc3c(=O)n(-c4ccc(Cl)c5c(NS(C)(=O)=O)nn(C)c45)c([C@H](Cc4cc(F)cc(F)c4)NC(=O)Cn4nc(C(F)F)c5c4C(F)(F)[C@@H]4C[C@H]54)nc3c2)n1 (atropisomer, axis not shown; (P)) [Example 12, N—((S)-1-((3P)-3-(4-chloro-1-methyl-3-(methylsulfonamido)-1H-indazol-7-yl)-7-(4-cyano-6-methylpyrimidin-2-yl)-4-oxo-3,4-dihydroquinazolin-2-yl)-2-(3,5-difluorophenyl)ethyl)-2-((3bS,4aR)-3-(difluoromethyl)-5,5-difluoro-3b,4,4a,5-tetrahydro-1H-cyclopropa[3,4]cyclopenta[1,2-c]pyrazol-1-yl)acetamide]	0.087 nM	> 500 nM
COc1nc(C)cc(-c2ccc3c(=O)n(-c4ccc(Cl)c5c(NS(C)(=O)=O)nn(C)c45)c([C@H](Cc4cc(F)cc(F)c4)NC(=O)Cn4nc(C(F)F)c5c4C(F)(F)[C@@H]4C[C@H]54)nc3c2)n1 (atropisomer, axis not shown; (P)) [Example 16, N—((S)-1-((3P)-3-(4-chloro-1-methyl-3-(methylsulfonamido)-1H-indazol-7-yl)-7-(2-methoxy-6-methylpyrimidin-4-yl)-4-oxo-3,4-dihydroquinazolin-2-yl)-2-(3,5-difluorophenyl)ethyl)-2-((3bS,4aR)-3-(difluoromethyl)-5,5-difluoro-3b,4,4a,5-tetrahydro-1H-cyclopropa[3,4]cyclopenta[1,2-c]pyrazol-1-yl)acetamide]	0.11 nM	> 500 nM
Cn1nc(NS(C)(=O)=O)c2c(Cl)ccc(-n3c([C@H](Cc4cc(F)cc(F)c4)NC(=O)Cn4nc(C(F)F)c5c4C(F)(F)[C@@H]4C[C@H]54)nc4cc(-c5cncc(C(F)F)c5)ccc4c3=O)c21 (atropisomer, axis not shown; (P)) [Example 17, N—((S)-1-((3P)-3-(4-chloro-1-methyl-3-(methylsulfonamido)-1H-indazol-7-yl)-7-(5-(difluoromethyl)pyridin-3-yl)-4-oxo-3,4-dihydroquinazolin-2-yl)-2-(3,5-difluorophenyl)ethyl)-2-((3bS,4aR)-3-(difluoromethyl)-5,5-difluoro-3b,4,4a,5-tetrahydro-1H-cyclopropa[3,4]cyclopenta[1,2-c]pyrazol-1-yl)acetamide]	0.078 nM	> 500 nM
Cn1nc(NS(C)(=O)=O)c2c(Cl)ccc(-n3c([C@H](Cc4cc(F)cc(F)c4)NC(=O)Cn4nc(C(F)F)c5c4C(F)(F)[C@@H]4C[C@H]54)nc4cc(-c5cccc(C(F)F)c5F)ccc4c3=O)c21 (atropisomer, axis not shown; (P)) [Example 18, N—((S)-1-((3P)-3-(4-chloro-1-methyl-3-(methylsulfonamido)-1H-indazol-7-yl)-7-(3-(difluoromethyl)-2-fluorophenyl)-4-oxo-3,4-dihydroquinazolin-2-yl)-2-(3,5-difluorophenyl)ethyl)-2-((3bS,4aR)-3-(difluoromethyl)-5,5-difluoro-3b,4,4a,5-tetrahydro-1H-cyclopropa[3,4]cyclopenta[1,2-c]pyrazol-1-yl)acetamide]	0.54 nM	> 500 nM
COCc1ccccc1-c1ccc2c(=O)n(-c3ccc(Cl)c4c(NS(C)(=O)=O)nn(C)c34)c([C@H](Cc3cc(F)cc(F)c3)NC(=O)Cn3nc(C(F)F)c4c3C(F)(F)[C@@H]3C[C@H]43)nc2c1 (atropisomer, axis not shown; (P)) [Example 19, N—((S)-1-((3P)-3-(4-chloro-1-methyl-3-(methylsulfonamido)-1H-indazol-7-yl)-7-(2-(methoxymethyl)phenyl)-4-oxo-3,4-dihydroquinazolin-2-yl)-2-(3,5-difluorophenyl)ethyl)-2-((3bS,4aR)-3-(difluoromethyl)-5,5-difluoro-3b,4,4a,5-tetrahydro-1H-cyclopropa[3,4]cyclopenta[1,2-c]pyrazol-1-yl)acetamide]	0.16 nM	> 500 nM
Cn1nccc1-c1ccc2c(=O)n(-c3ccc(Cl)c4c(NS(C)(=O)=O)nn(C)c34)c([C@H](Cc3cc(F)cc(F)c3)NC(=O)Cn3nc(C(F)F)c4c3C(F)(F)[C@@H]3C[C@H]43)nc2c1 (atropisomer, axis not shown; (P)) [Example 20, N—((S)-1-((3P)-3-(4-chloro-1-methyl-3-(methylsulfonamido)-1H-indazol-7-yl)-7-(1-methyl-1H-pyrazol-5-yl)-4-oxo-3,4-dihydroquinazolin-2-yl)-2-(3,5-difluorophenyl)ethyl)-2-((3bS,4aR)-3-(difluoromethyl)-5,5-difluoro-3b,4,4a,5-tetrahydro-1H-cyclopropa[3,4]cyclopenta[1,2-c]pyrazol-1-yl)acetamide]	0.056 nM	> 500 nM
Cn1nc(NS(C)(=O)=O)c2c(Cl)ccc(-n3c([C@H](Cc4cc(F)cc(F)c4)NC(=O)Cn4nc(C(F)F)c5c4C(F)(F)[C@@H]4C[C@H]54)nc4cc(-c5nc(C(F)(F)F)ccc5F)ccc4c3=O)c21 (atropisomer, axis not shown; (P)) [Example 21, N—((S)-1-((3P)-3-(4-chloro-1-methyl-3-(methylsulfonamido)-1H-indazol-7-yl)-7-(3-fluoro-6-(trifluoromethyl)pyridin-2-yl)-4-oxo-3,4-dihydroquinazolin-2-yl)-2-(3,5-difluorophenyl)ethyl)-2-((3bS,4aR)-3-(difluoromethyl)-5,5-difluoro-3b,4,4a,5-tetrahydro-1H-cyclopropa[3,4]cyclopenta[1,2-c]pyrazol-1-yl)acetamide]	0.15 nM	> 100 nM
Cn1nc(NS(C)(=O)=O)c2c(Cl)ccc(-n3c([C@H](Cc4cc(F)cc(F)c4)NC(=O)Cn4nc(C(F)F)c5c4C(F)(F)[C@@H]4C[C@H]54)nc4cc(-c5cncc(C(F)(F)F)n5)ccc4c3=O)c21 (atropisomer, axis not shown; (P)) [Example 22, N—((S)-1-((3P)-3-(4-chloro-1-methyl-3-(methylsulfonamido)-1H-indazol-7-yl)-4-oxo-7-(6-(trifluoromethyl)pyrazin-2-yl)-3,4-dihydroquinazolin-2-yl)-2-(3,5-difluorophenyl)ethyl)-2-((3bS,4aR)-3-(difluoromethyl)-5,5-difluoro-3b,4,4a,5-tetrahydro-1H-cyclopropa[3,4]cyclopenta[1,2-c]pyrazol-1-yl)acetamide]	0.06 nM	> 100 nM

Reference: patent US20230013823A1, “INHIBITORS OF HUMAN IMMUNODEFICIENCY VIRUS REPLICATION” (VIV HEALTHCARE UK (No. 5) LIMITED, priority 2019, published 2023)
